{
  "source": "patent US5122514A",
  "about": "“Psoriasis treatment” (Abbott Laboratories, priority 1991, dated 1992)",
  "test_system": "psoriatic lesions on the patient's elbow, face and scalp",
  "test": "Grading of psoriatic lesions in a patient after intravenous enalkiren",
  "assay_type": "in vivo, human",
  "parameters": "key to Right Elbow Lesions lesion severity, lesion ranking: 0: Complete clearing; 1: Minimal severity; 2: Moderately severe; 3: Severe; 4: More severe; key to Right Elbow Lesions erythema, lesion ranking / Face Lesions erythema, lesion ranking / Scalp Lesions erythema, lesion ranking: 0: None; 1: Very Mild: light red/pink; 2: Moderate: red but still not dark in texture; 3: Strong: very red, possibly dark; 4: Extreme: angry red",
  "method": "A patient with documented psoriasis received 0.1 mg/kg of enalkiren (H-((beta,beta-dimethyl)-beta-Ala)-(4-OCH3)Phe-His amide of 2(S)-amino-1cyclohexyl-3(R), 4(S)-dihydroxy-6-methylheptane diacetic acid salt)(enalkiren 5.0 mg/5 ml (0.1% concentration), glacial acetic acid 0.91 mg/5ml and sodium chloride 43.9 mg/5 ml in water for injection) intravenously over a 5 minute period, followed 40 minutes later by administration of an additional 0.3 mg/kg of enalkiren intravenously over a 5 minute period. The psoriatic lesions on the patient's elbow, face and scalp were graded prior to treatment and 2, 4 and 7 days following treatment.",
  "key": {"[1]": {"settings": "+2 Days after 0.1 mg/kg then 0.3 mg/kg intravenously"}, "[2]": {"settings": "+4 Days after 0.1 mg/kg then 0.3 mg/kg intravenously"}, "[3]": {"settings": "+7 Days after 0.1 mg/kg then 0.3 mg/kg intravenously"}, "[4]": {"settings": "Treatment Day (graded prior to treatment), person with psoriasis"}},
  "note": "Where a name gives a salt, the structure may show the parent alone.",
  "data": [
    {"smiles": "COc1ccc(C[C@H](NC(=O)CC(C)(C)N)C(=O)N[C@@H](Cc2cnc[nH]2)C(=O)N[C@@H](CC2CCCCC2)[C@@H](O)[C@@H](O)CC(C)C)cc1", "note": "[Enalkiren, H-((beta,beta-dimethyl)-beta-Ala)-(4-OCH3)Phe-His amide of 2(S)-amino-1cyclohexyl-3(R), 4(S)-dihydroxy-6-methylheptane diacetic acid salt]", "values": [
      {"measurement": "Face Lesions erythema, lesion ranking", "setting": "[1]", "result": 3},
      {"measurement": "Right Elbow Lesions erythema, lesion ranking", "setting": "[1]", "result": 4},
      {"measurement": "Right Elbow Lesions lesion severity, lesion ranking", "setting": "[1]", "result": 4},
      {"measurement": "Scalp Lesions erythema, lesion ranking", "setting": "[1]", "result": 4},
      {"measurement": "Face Lesions erythema, lesion ranking", "setting": "[2]", "result": 2},
      {"measurement": "Right Elbow Lesions erythema, lesion ranking", "setting": "[2]", "result": 3},
      {"measurement": "Right Elbow Lesions lesion severity, lesion ranking", "setting": "[2]", "result": 3},
      {"measurement": "Scalp Lesions erythema, lesion ranking", "setting": "[2]", "result": 3},
      {"measurement": "Face Lesions erythema, lesion ranking", "setting": "[3]", "result": 2},
      {"measurement": "Right Elbow Lesions erythema, lesion ranking", "setting": "[3]", "result": 3},
      {"measurement": "Right Elbow Lesions lesion severity, lesion ranking", "setting": "[3]", "result": 3},
      {"measurement": "Scalp Lesions erythema, lesion ranking", "setting": "[3]", "result": 3},
      {"measurement": "Face Lesions erythema, lesion ranking", "setting": "[4]", "result": 3},
      {"measurement": "Right Elbow Lesions erythema, lesion ranking", "setting": "[4]", "result": 4},
      {"measurement": "Right Elbow Lesions lesion severity, lesion ranking", "setting": "[4]", "result": 4},
      {"measurement": "Scalp Lesions erythema, lesion ranking", "setting": "[4]", "result": 4}
    ]}
  ]
}
